{"source": "PubChem BioAssay (NCI)", "assay_in_all_cases": "NCI tumour cell line growth inhibition, 48 h", "key": {"HCT-15 colon": {"tested_on": "HCT-15 colon"}, "M14 melanoma": {"tested_on": "M14 melanoma"}, "DMS 114 small cell lung": {"tested_on": "DMS 114 small cell lung"}, "SNB-19 CNS": {"tested_on": "SNB-19 CNS"}, "NCI-H522 lung": {"tested_on": "NCI-H522 lung"}, "LXFL 529 NSCLC": {"tested_on": "LXFL 529 NSCLC"}, "NCI-H226 lung": {"tested_on": "NCI-H226 lung"}, "NCI-H460 lung": {"tested_on": "NCI-H460 lung"}, "SW-620 colon": {"tested_on": "SW-620 colon"}, "HOP-62 NSCLC": {"tested_on": "HOP-62 NSCLC"}, "A498 renal": {"tested_on": "A498 renal"}, "HCT-116 colon": {"tested_on": "HCT-116 colon"}, "CAKI-1 renal": {"tested_on": "CAKI-1 renal"}, "MALME-3M melanoma": {"tested_on": "MALME-3M melanoma"}, "CCRF-CEM leukemia": {"tested_on": "CCRF-CEM leukemia"}, "UACC-257 melanoma": {"tested_on": "UACC-257 melanoma"}, "SF-268 CNS": {"tested_on": "SF-268 CNS"}, "OVCAR-3 ovarian": {"tested_on": "OVCAR-3 ovarian"}, "DLD-1 colon": {"tested_on": "DLD-1 colon"}, "NCI-H23 lung": {"tested_on": "NCI-H23 lung"}, "HL-60(TB) leukemia": {"tested_on": "HL-60(TB) leukemia"}, "M19-MEL melanoma": {"tested_on": "M19-MEL melanoma"}, "KM20L2 colon": {"tested_on": "KM20L2 colon"}, "COLO 205 colon": {"tested_on": "COLO 205 colon"}, "HT29 colon": {"tested_on": "HT29 colon"}, "786-0 renal": {"tested_on": "786-0 renal"}, "RPMI-8226 leukemia": {"tested_on": "RPMI-8226 leukemia"}, "A549 NSCLC": {"tested_on": "A549 NSCLC"}, "OVCAR-5 ovarian": {"tested_on": "OVCAR-5 ovarian"}, "SK-MEL-5 melanoma": {"tested_on": "SK-MEL-5 melanoma"}, "KM12 colon": {"tested_on": "KM12 colon"}, "K-562 leukemia": {"tested_on": "K-562 leukemia"}, "SK-MEL-2 melanoma": {"tested_on": "SK-MEL-2 melanoma"}, "SNB-75 CNS": {"tested_on": "SNB-75 CNS"}, "SF-295 CNS": {"tested_on": "SF-295 CNS"}, "SK-MEL-28 melanoma": {"tested_on": "SK-MEL-28 melanoma"}, "SR leukemia": {"tested_on": "SR leukemia"}, "TK-10 renal": {"tested_on": "TK-10 renal"}, "OVCAR-4 ovarian": {"tested_on": "OVCAR-4 ovarian"}, "OVCAR-8 ovarian": {"tested_on": "OVCAR-8 ovarian"}, "UACC-62 melanoma": {"tested_on": "UACC-62 melanoma"}, "HOP-92 NSCLC": {"tested_on": "HOP-92 NSCLC"}, "SK-OV-3 ovarian": {"tested_on": "SK-OV-3 ovarian"}, "U251 CNS": {"tested_on": "U251 CNS"}, "SN12C renal": {"tested_on": "SN12C renal"}, "SNB-78 CNS": {"tested_on": "SNB-78 CNS"}, "EKVX NSCLC": {"tested_on": "EKVX NSCLC"}, "ACHN renal": {"tested_on": "ACHN renal"}, "UO-31 renal": {"tested_on": "UO-31 renal"}, "XF 498 CNS": {"tested_on": "XF 498 CNS"}}, "note": "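Compound exposure: 48 hours, 5 concentrations, 96-well plates. Definition used: TGI = concentration required for complete inhibition of growth.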", "data": [{"smiles": "Cc1cc(CC(O)c2ccc(Cl)c(Cl)c2)nc(=O)[nH]1", "note": "(stereo not given)", "values": [{"measurement": "TGI", "setting": "HCT-15 colon", "result": "> 100", "unit": "µM"}, {"measurement": "TGI", "setting": "M14 melanoma", "result": "> 100", "unit": "µM"}, {"measurement": "TGI", "setting": "DMS 114 small cell lung", "result": 26.8, "unit": "µM"}, {"measurement": "TGI", "setting": "SNB-19 CNS", "result": "> 100", "unit": "µM"}, {"measurement": "TGI", "setting": "NCI-H522 lung", "result": 69.9, "unit": "µM"}, {"measurement": "TGI", "setting": "LXFL 529 NSCLC", "result": 59.2, "unit": "µM"}, {"measurement": "TGI", "setting": "NCI-H226 lung", "result": 92, "unit": "µM"}, {"measurement": "TGI", "setting": "NCI-H460 lung", "result": "> 100", "unit": "µM"}, {"measurement": "TGI", "setting": "SW-620 colon", "result": "> 100", "unit": "µM"}, {"measurement": "TGI", "setting": "HOP-62 NSCLC", "result": 86.5, "unit": "µM"}, {"measurement": "TGI", "setting": "A498 renal", "result": "> 100", "unit": "µM"}, {"measurement": "TGI", "setting": "HCT-116 colon", "result": 54.2, "unit": "µM"}, {"measurement": "TGI", "setting": "CAKI-1 renal", "result": 90, "unit": "µM"}, {"measurement": "TGI", "setting": "MALME-3M melanoma", "result": "> 100", "unit": "µM"}, {"measurement": "TGI", "setting": "CCRF-CEM leukemia", "result": "> 100", "unit": "µM"}, {"measurement": "TGI", "setting": "UACC-257 melanoma", "result": "> 100", "unit": "µM"}, {"measurement": "TGI", "setting": "SF-268 CNS", "result": "> 100", "unit": "µM"}, {"measurement": "TGI", "setting": "OVCAR-3 ovarian", "result": "> 100", "unit": "µM"}, {"measurement": "TGI", "setting": "DLD-1 colon", "result": "> 100", "unit": "µM"}, {"measurement": "TGI", "setting": "NCI-H23 lung", "result": "> 100", "unit": "µM"}, {"measurement": "TGI", "setting": "HL-60(TB) leukemia", "result": "> 100", "unit": "µM"}, {"measurement": "TGI", "setting": "M19-MEL melanoma", "result": "> 100", "unit": "µM"}, {"measurement": "TGI", "setting": "KM20L2 colon", "result": "> 100", "unit": "µM"}, {"measurement": "TGI", "setting": "COLO 205 colon", "result": 85.2, "unit": "µM"}, {"measurement": "TGI", "setting": "HT29 colon", "result": "> 100", "unit": "µM"}, {"measurement": "TGI", "setting": "786-0 renal", "result": 38.7, "unit": "µM"}, {"measurement": "TGI", "setting": "RPMI-8226 leukemia", "result": "> 100", "unit": "µM"}, {"measurement": "TGI", "setting": "A549 NSCLC", "result": 66, "unit": "µM"}, {"measurement": "TGI", "setting": "OVCAR-5 ovarian", "result": "> 100", "unit": "µM"}, {"measurement": "TGI", "setting": "SK-MEL-5 melanoma", "result": "> 100", "unit": "µM"}, {"measurement": "TGI", "setting": "KM12 colon", "result": "> 100", "unit": "µM"}, {"measurement": "TGI", "setting": "K-562 leukemia", "result": "> 100", "unit": "µM"}, {"measurement": "TGI", "setting": "SK-MEL-2 melanoma", "result": "> 100", "unit": "µM"}, {"measurement": "TGI", "setting": "SNB-75 CNS", "result": 48.8, "unit": "µM"}, {"measurement": "TGI", "setting": "SF-295 CNS", "result": 90, "unit": "µM"}, {"measurement": "TGI", "setting": "SK-MEL-28 melanoma", "result": "> 100", "unit": "µM"}, {"measurement": "TGI", "setting": "SR leukemia", "result": "> 100", "unit": "µM"}, {"measurement": "TGI", "setting": "TK-10 renal", "result": "> 100", "unit": "µM"}, {"measurement": "TGI", "setting": "OVCAR-4 ovarian", "result": "> 100", "unit": "µM"}, {"measurement": "TGI", "setting": "OVCAR-8 ovarian", "result": "> 100", "unit": "µM"}, {"measurement": "TGI", "setting": "UACC-62 melanoma", "result": "> 100", "unit": "µM"}, {"measurement": "TGI", "setting": "HOP-92 NSCLC", "result": 49.5, "unit": "µM"}, {"measurement": "TGI", "setting": "SK-OV-3 ovarian", "result": "> 100", "unit": "µM"}, {"measurement": "TGI", "setting": "U251 CNS", "result": "> 100", "unit": "µM"}, {"measurement": "TGI", "setting": "SN12C renal", "result": "> 100", "unit": "µM"}, {"measurement": "TGI", "setting": "SNB-78 CNS", "result": "> 100", "unit": "µM"}, {"measurement": "TGI", "setting": "EKVX NSCLC", "result": 96.7, "unit": "µM"}, {"measurement": "TGI", "setting": "ACHN renal", "result": "> 100", "unit": "µM"}, {"measurement": "TGI", "setting": "UO-31 renal", "result": "> 100", "unit": "µM"}, {"measurement": "TGI", "setting": "XF 498 CNS", "result": 41.3, "unit": "µM"}]}]}
